Reference: article PMC4000049, “Genome segment 5 of Antheraea mylitta cytoplasmic polyhedrosis virus encodes a bona fide guanylyltransferase” (Virology Journal, 2014)

Test system: T1, p65 (AmCPV S5-encoded guanylyltransferase)
T1 construct: entire S5 ORF (nt 266 to 2086; 606 residues, ~65 kDa), His-tagged in pQE-30, E. coli M15, Ni-NTA
Experiment: pyrophosphatase-coupled malachite green assay of capping, replot of double-reciprocal plots
Format: biochemical, Antheraea mylitta cypovirus 4
Details: co-substrate 5'-diphosphate-ended viral RNA (50 to 150 nM), 5 mM MgCl2, 5 mM DTT, 50 mM Tris-HCl pH 7.5, 25°C; ping-pong; covalent GMP intermediate

For Nc1nc2c(ncn2[C@@H]2O[C@H](COP(=O)(O)OP(=O)(O)OP(=O)(O)O)[C@@H](O)[C@H]2O)c(=O)[nH]1 [GTP], the Km was 34.2 µM.
